Results reported in article PMC6934184, “Selective DNA-PKcs inhibition extends the therapeutic index of localized radiotherapy and chemotherapy” (The Journal of Clinical Investigation, 2019).

Molecular target: T1, INSRR (IRR) (Homo sapiens, UniProt P14616)
T1 construct: purchased Thermo Fisher Scientific (Life Technologies) SelectScreen
Test: SelectScreen Z'LYTE
Assay type: biochemical
Outline: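 SelectScreen broad panel; activity (Z'LYTE, Adapta) plus binding formats. ATP: Km app for CSF1R Z'LYTE; 10 for CAMK1 Adapta. Readout = % per kinase.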

T1 sequence (P14616 27-1297): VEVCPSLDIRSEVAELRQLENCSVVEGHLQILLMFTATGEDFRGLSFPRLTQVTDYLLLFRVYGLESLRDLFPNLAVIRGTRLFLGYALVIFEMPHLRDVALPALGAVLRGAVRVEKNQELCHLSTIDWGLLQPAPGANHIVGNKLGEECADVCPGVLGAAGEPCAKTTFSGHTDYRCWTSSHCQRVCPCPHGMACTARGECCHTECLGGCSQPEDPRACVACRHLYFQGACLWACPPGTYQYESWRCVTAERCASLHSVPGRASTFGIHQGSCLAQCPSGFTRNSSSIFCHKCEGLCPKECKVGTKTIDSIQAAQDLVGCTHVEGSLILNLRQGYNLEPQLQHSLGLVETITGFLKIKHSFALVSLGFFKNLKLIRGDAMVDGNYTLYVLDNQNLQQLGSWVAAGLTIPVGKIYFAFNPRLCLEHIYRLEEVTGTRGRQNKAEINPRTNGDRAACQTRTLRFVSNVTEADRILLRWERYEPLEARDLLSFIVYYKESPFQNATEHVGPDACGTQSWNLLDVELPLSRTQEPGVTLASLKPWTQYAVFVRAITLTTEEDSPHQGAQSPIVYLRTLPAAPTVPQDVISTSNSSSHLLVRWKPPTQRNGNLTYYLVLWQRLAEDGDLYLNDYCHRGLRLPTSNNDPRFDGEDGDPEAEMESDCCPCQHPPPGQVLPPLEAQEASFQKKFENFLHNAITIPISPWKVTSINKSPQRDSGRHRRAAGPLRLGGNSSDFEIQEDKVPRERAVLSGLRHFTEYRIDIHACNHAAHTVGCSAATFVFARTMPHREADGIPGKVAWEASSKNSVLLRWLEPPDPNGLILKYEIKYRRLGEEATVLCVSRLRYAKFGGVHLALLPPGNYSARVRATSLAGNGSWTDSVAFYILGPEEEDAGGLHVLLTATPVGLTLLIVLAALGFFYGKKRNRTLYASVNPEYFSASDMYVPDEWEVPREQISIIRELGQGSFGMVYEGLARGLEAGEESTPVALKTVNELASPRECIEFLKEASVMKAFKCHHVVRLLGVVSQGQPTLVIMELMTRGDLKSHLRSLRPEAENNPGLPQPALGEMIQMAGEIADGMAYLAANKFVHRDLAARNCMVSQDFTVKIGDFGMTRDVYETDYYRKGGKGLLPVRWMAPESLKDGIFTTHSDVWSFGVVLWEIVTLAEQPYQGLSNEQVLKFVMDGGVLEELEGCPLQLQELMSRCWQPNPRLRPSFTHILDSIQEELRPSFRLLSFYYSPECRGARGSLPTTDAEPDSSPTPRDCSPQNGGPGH

CN(C(=O)CN1CCOCC1)c1ccc2sc3c(-c4cccc5c(=O)cc(N6CC7CCC(C6)O7)oc45)cccc3c2c1 [NU5455]
inhibition at 1 µM: 14.1%
